Data as given in BindingDB's records for patent US11547697 (Millennium Pharmaceuticals, 2023).

Key:
Experiment in all cases: Inhibition Assay of PI3K
[1] = target: T1, Phosphatidylinositol 4,5-bisphosphate 3-kinase catalytic subunit delta isoform (Homo sapiens, UniProt O00329)
T1 sequence (O00329 whole entry): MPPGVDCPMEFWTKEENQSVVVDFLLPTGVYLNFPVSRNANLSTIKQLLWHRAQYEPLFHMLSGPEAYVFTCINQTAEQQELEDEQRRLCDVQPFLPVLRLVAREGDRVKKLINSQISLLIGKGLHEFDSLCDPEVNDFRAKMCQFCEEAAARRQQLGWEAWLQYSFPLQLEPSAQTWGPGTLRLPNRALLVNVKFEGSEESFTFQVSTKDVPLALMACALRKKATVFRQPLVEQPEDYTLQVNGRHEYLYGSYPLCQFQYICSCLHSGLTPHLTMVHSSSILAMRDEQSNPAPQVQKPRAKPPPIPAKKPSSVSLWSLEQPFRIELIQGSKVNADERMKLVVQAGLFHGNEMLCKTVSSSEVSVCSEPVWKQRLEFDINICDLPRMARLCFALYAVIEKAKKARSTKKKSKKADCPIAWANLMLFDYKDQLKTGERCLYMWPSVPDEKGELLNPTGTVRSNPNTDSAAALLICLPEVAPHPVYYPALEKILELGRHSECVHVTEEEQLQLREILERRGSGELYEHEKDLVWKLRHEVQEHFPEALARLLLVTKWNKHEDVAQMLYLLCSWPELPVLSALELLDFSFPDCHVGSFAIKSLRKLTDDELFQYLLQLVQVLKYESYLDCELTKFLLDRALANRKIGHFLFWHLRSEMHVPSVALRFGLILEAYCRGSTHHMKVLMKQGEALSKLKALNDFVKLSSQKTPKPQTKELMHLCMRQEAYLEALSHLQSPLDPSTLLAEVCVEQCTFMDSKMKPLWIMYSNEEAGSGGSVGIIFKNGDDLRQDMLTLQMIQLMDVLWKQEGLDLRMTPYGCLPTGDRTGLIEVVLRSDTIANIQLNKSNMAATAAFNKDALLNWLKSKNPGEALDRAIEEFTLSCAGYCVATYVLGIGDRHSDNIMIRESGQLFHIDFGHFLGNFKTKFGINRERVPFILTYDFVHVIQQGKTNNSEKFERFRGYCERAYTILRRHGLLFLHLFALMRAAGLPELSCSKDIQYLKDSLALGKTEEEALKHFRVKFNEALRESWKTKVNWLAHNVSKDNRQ

[2] = target: Phosphatidylinositol 4,5-bisphosphate 3-kinase catalytic subunit beta isoform (Homo sapiens, UniProt P42338)
Phosphatidylinositol 4,5-bisphosphate 3-kinase catalytic subunit beta isoform, sequence (P42338 whole entry, canonical isoform): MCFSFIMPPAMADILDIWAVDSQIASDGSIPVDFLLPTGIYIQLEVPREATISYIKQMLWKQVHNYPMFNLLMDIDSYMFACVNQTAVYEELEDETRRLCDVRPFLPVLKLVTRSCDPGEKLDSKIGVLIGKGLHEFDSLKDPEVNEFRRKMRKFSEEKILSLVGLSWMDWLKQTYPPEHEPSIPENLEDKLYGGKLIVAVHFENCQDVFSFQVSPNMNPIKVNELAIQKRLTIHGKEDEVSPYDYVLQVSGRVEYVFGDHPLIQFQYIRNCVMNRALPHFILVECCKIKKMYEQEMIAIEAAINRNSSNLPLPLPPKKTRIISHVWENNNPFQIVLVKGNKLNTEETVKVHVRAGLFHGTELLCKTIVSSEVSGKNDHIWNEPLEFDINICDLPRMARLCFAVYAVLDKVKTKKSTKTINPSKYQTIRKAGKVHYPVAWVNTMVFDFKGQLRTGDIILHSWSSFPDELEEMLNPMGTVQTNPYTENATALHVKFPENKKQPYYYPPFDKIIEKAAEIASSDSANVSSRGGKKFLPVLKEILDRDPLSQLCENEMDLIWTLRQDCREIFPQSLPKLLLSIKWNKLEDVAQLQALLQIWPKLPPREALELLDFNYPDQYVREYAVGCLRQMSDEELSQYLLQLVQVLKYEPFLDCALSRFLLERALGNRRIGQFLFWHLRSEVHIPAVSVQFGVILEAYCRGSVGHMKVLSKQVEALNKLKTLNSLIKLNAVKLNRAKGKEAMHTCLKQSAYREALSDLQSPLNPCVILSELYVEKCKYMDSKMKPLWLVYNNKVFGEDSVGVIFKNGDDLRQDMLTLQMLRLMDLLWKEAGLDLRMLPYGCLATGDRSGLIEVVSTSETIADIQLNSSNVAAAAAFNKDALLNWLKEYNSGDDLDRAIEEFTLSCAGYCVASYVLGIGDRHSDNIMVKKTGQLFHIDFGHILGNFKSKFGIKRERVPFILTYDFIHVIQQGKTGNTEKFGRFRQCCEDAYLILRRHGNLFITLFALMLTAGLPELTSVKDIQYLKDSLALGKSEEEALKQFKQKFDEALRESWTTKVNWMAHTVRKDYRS

[3] = target: Phosphatidylinositol 4,5-bisphosphate 3-kinase catalytic subunit alpha isoform (Homo sapiens, UniProt P42336)
Phosphatidylinositol 4,5-bisphosphate 3-kinase catalytic subunit alpha isoform, sequence (P42336 whole entry, canonical isoform): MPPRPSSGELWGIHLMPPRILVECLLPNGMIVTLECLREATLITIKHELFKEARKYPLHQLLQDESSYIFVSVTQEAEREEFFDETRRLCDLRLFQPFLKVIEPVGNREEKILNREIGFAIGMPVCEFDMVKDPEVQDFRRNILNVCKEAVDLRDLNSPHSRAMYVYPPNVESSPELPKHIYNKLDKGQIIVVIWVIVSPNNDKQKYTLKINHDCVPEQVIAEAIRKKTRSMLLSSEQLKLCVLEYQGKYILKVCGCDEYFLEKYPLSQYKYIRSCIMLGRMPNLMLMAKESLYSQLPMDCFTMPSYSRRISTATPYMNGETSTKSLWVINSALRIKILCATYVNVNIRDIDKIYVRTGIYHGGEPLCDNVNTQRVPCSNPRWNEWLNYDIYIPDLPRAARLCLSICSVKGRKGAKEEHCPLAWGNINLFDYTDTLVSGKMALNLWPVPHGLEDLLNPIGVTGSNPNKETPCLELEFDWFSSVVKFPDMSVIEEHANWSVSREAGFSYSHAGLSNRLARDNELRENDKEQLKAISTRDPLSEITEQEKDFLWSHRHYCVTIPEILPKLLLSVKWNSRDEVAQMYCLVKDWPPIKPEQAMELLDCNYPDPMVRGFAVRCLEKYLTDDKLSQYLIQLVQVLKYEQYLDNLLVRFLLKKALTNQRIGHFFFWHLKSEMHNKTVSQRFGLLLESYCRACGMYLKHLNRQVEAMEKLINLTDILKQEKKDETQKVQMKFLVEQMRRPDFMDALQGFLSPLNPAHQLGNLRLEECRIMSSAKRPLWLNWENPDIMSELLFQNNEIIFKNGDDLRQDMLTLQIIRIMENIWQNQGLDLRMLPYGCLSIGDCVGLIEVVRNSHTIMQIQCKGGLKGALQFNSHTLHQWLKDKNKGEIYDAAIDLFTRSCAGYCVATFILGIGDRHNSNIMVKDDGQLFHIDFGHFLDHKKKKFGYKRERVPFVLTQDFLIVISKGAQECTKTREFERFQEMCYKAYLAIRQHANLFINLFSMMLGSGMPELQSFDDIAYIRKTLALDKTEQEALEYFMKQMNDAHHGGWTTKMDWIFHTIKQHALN

[4] = target: Phosphatidylinositol 4,5-bisphosphate 3-kinase catalytic subunit gamma isoform (Homo sapiens, UniProt P48736)
Phosphatidylinositol 4,5-bisphosphate 3-kinase catalytic subunit gamma isoform, sequence (P48736 whole entry, canonical isoform): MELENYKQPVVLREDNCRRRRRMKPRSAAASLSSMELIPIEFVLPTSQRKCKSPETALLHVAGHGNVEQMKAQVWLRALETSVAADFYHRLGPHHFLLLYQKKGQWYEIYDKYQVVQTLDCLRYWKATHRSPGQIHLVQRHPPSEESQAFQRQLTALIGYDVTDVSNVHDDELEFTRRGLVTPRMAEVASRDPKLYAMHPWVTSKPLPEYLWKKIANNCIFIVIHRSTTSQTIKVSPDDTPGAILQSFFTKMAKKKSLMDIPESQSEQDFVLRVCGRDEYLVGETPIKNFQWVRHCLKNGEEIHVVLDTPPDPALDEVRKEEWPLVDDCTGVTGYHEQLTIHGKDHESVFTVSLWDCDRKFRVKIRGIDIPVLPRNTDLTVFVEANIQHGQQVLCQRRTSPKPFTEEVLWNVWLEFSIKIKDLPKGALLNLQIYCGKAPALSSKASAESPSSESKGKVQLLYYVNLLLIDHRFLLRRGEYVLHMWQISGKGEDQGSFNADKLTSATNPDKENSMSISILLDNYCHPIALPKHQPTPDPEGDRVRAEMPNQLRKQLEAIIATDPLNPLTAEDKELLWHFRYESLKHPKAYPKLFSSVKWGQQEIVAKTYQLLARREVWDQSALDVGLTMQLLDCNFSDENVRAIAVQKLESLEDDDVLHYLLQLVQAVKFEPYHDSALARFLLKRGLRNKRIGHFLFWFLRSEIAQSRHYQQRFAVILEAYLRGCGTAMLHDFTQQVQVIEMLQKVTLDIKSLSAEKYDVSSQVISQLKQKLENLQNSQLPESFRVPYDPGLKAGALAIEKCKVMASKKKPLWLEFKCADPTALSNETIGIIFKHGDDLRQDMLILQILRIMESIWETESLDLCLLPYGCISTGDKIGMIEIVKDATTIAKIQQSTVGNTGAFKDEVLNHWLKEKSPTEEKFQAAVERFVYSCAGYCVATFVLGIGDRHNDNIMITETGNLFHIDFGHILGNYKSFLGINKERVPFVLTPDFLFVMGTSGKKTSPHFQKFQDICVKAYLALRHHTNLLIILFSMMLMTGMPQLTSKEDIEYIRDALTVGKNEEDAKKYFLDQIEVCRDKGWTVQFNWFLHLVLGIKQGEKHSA

Measured: IC50

CC(C)N1CCN(c2cnc3ccc(-c4ccc5oc(N)nc5c4)cc3n2)C(=O)C1 [US11547697, Compound 392]
> 10 µM: all assays above

CC(=O)Nc1n[nH]c2ccc(-c3ccc4oc(N)nc4c3)cc12 [US11547697, Compound 431]
> 10 µM: all assays above

CC(C)N1CCC(n2cnc3ccc(-c4cncc(NS(C)(=O)=O)c4)cc3c2=O)CC1 [US11547697, Compound 520]
> 10 µM: all assays above

C[C@H]1CN(c2cnc3ccc(-c4cccc5c(N)nsc45)cc3n2)CCN1 [US11547697, Compound 321]
> 10 µM: all assays above

CC(=O)n1nc(N)c2ccc(-c3ccc4oc(N)nc4c3)cc21 [US11547697, Compound 426]
> 10 µM: all assays above

Nc1noc2cc(-c3ccc4ncc(C(=O)N5CCOCC5)n4c3)ccc12 [US11547697, Compound 488]
> 10 µM: all assays above

Nc1nc2cc(-c3cnc4ncc(-c5ccncc5)n4c3)ccc2o1 [US11547697, Compound 61]
> 10 µM: all assays above

C[C@H]1CN(c2cnc3cccc(-c4ccc5oc(N)nc5c4)c3n2)CCN1 [US11547697, Compound 342]
> 10 µM: all assays above

O=C(c1cnc2ccc(-c3ccc4c(Nc5ccccc5)nsc4c3)cn12)N1CCOCC1 [US11547697, Compound 505]
> 10 µM: all assays above

C[C@H]1CN(c2cnc3scc(-c4ccc5oc(N)nc5c4)c3c2)CCN1 [US11547697, Compound 399]
> 10 µM: all assays above

Nc1nc2ccc(-c3ccc4nc(N)oc4c3)cc2o1 [US11547697, Compound 246]
> 10 µM: all assays above

O=C(c1cnc2ccc(-c3cccc(S(=O)(=O)Nc4ccccc4)c3)cn12)N1CCOCC1 [US11547697, Compound 440]
> 10 µM: all assays above

Nc1n[nH]c2cc(-c3ccc4ncc(C(=O)N5CCOCC5)n4c3)ccc12 [US11547697, Compound 487]
> 10 µM: all assays above

Cc1cc2ncc(C(=O)N3CCOCC3)n2cc1-c1ccc2oc(N)nc2c1 [US11547697, Compound 507]
> 10 µM: all assays above

COc1ccc(CNc2n[nH]c3cc(-c4ccc5oc(N)nc5c4)ccc23)cc1 [US11547697, Compound 429]
> 10 µM: all assays above

CNS(=O)(=O)c1cc(-c2ccc3ncc(C(=O)N4CCOCC4)n3c2)ccc1OC [US11547697, Compound 445]
> 10 µM: all assays above

CS(=O)(=O)Nc1cccc(-c2ccc3ncc(C(=O)N4CCOCC4)n3c2)c1 [US11547697, Compound 443]
> 10 µM: all assays above

CC(=O)Nc1cn2cc(-c3ccc4nccc(-c5ccncc5)c4c3)ccc2n1 [US11547697, Compound 19]
> 10 µM: all assays above

Cc1c(-c2ccc3ncc(N4CC(N5CCOCC5)C4)nc3c2)ccc2oc(N)nc12 [US11547697, Compound 362]
> 10 µM: all assays above
